Tests used:
[1] = test system: pigmented reconstructed epidermis; assay: Depigmenting activity on pigmented reconstructed epidermis (melanin quantified by image analysis, Fontana Masson); assay type: cell-based, human; conditions: 300 μM in DMSO, control DMSO, Mann-Whitney test, pValue<0.05
Procedure: Compositions comprising 300 μM of compound 1 in DMSO were applied to samples of pigmented reconstructed epidermis (cf. EP 1 878 790). The control is DMSO.
The melanin was quantified by image analysis on histological slices after staining with Fontana Masson dye. Each sample of coloured epidermis is photographed over its entire length using a camera connected to a microscope. The melanin is thresholded and the number of melanin pixels is measured in each field using automated image analysis software. A non-parametric statistical test is performed in order to determine the significance of the measurements (Mann-Whitney test, see FIG. 1).
The pigmented reconstructed epidermis standard study model was published by: Regnier M, Duval C, Galey J B, Philippe M, Lagrange A, Tuloup R, Schmidt R, Cellular and Molecular Biology, 1999, 45, 7, 969-980: “Keratinocyte-Melanocyte co-cultures and pigmented reconstructed human epidermis: models to study modulation of melanogenesis”.

normal human melanocytes = assay: Depigmenting activity (reduction of melanin production) in normal human melanocytes in vitro; assay type: cell-based; conditions: Melanocyte, 72 hours incubation, optical density of melanin, maximum concentration tested 200 μM, read-out: IC50 (concentration at which a 50% decrease in melanin synthesis is achieved)
Procedure: The measurement of the depigmenting activity (reduction of melanin production) of compounds of formula (I) was performed by assaying normal human melanocytes in vitro as follows.
First of all, normal human melanocytes are cultured and dispensed into wells. After 24 hours, the culture medium was replaced with a medium containing compounds of formula (I) to be evaluated. The cells were incubated 72 hours before measurement of the final optical density, which measures the amount of melanin produced by the melanocytes. A dose effect is performed using a wide concentration range of the compounds evaluated. Thus, by making the concentrations and the melanin measurements correspond, it is possible to determine an IC50 in μM: concentration at which a 50% decrease in melanin synthesis is achieved.
Various test campaigns were conducted and the results collated in the table below.

[2] = test system: coculture of keratinocytes and melanocytes; assay: Coculture experiment: melanogenesis-modulating effect and cytotoxicity; assay type: cell-based; conditions: for IC50: melanin optical density, read-out: IC50 (concentration for which 50% of the melanin synthesis is inhibited)
Procedure: The melanogenesis-modulating effect of compound 1 was measured according to the method described in patent FR-A-2734825, and also in the article by R. Schmidt, P. Krien and M. Régnier, Anal. Biochem., 235(2), 113-18, 1996. This test is performed on a coculture of keratinocytes and melanocytes.
The following were determined for the test compound: • the cytotoxicity, • the inhibitory activity on melanin synthesis, by estimating the melanin optical density.
The IC50 values (concentration for which 50% of the melanin synthesis is inhibited) were determined.

Structure (SMILES) | depigmenting activity (melanin quantified by image analysis) [1] | IC50 (normal human melanocytes) [µM] | cytotoxicity [2] | IC50 [2] [µM]
CC1(C)CSSC[C@@H](C(=O)O)NC1=O [Compound 1, 7,7-dimethyl-6-oxo-1,2,5-dithiazocane-4-(R)-carboxylic acid] | Significant depigmenting activity | 62.5 | non-cytotoxic | 9.6
COC(=O)[C@@H]1CSSCC(C)(C)C(=O)N1 [Compound 2, methyl 7,7-dimethyl-6-oxo-1,2,5-dithiazocane-4(R)-carboxylate] |  | 13.6 | non-cytotoxic | 0.74
CC1(C)CSSCC(C(N)=O)NC1=O (stereo not shown) [Compound 3′, 7,7-dimethyl-6-oxo-1,2,5-dithiazocane-4-carboxamide] |  | 2.35 |  | 
CN(C)C(=O)C1CSSCC(C)(C)C(=O)N1 (stereo not shown) [Compound 4′, N,N,7,7-tetramethyl-6-oxo-1,2,5-dithiazocane-4-carboxamide] |  | 4.23 |  | 
CCOC(=O)C1CSSCC(C)(C)C(=O)N1 (stereo not shown) [Compound 5′, ethyl 7,7-dimethyl-6-oxo-1,2,5-dithiazocane-4-carboxylate] |  |  | non-cytotoxic | 0.79
CC(C)OC(=O)C1CSSCC(C)(C)C(=O)N1 (stereo not shown) [Compound 6′, propan-2-yl 7,7-dimethyl-6-oxo-1,2,5-dithiazocane-4-carboxylate] |  | 1.9 | non-cytotoxic | 1.57
CC1(C)CSSCC(C(=O)NCCO)NC1=O (stereo not shown) [Compound 7′, N-(2-hydroxyethyl)-7,7-dimethyl-6-oxo-1,2,5-dithiazocane-4-carboxamide] |  | < 0.4 | non-cytotoxic | 1.04
CCOC(=O)CNC(=O)C1CSSCC(C)(C)C(=O)N1 (stereo not shown) [Compound 8′, ethyl N-[(7,7-dimethyl-6-oxo-1,2,5-dithiazocan-4-yl)carbonyl]glycinate] |  | 0.87 | non-cytotoxic | 1.23
CCOC(=O)C(Cc1ccccc1)NC(=O)C1CSSCC(C)(C)C(=O)N1 (stereo not shown) [Compound 9′, ethyl N-[(7,7-dimethyl-6-oxo-1,2,5-dithiazocan-4-yl)carbonyl]phenylalaninate] |  | 20.8 |  | 
COCCOCCOC(=O)C1CSSCC(C)(C)C(=O)N1 (stereo not shown) [Compound 10′, 2-(2-methoxyethoxy)ethyl 7,7-dimethyl-6-oxo-1,2,5-dithiazocane-4-carboxylate] |  | 5.26 | non-cytotoxic | 7.62
COCC(C)OCC(C)OCC(C)OC(=O)C1CSSCC(C)(C)C(=O)N1 (stereo not shown) [Compound 11′, 1-({1-[(1-methoxypropan-2-yl)oxy]propan-2-yl}oxy)propan-2-yl 7,7-dimethyl-6-oxo-1,2,5-dithiazocane-4-carboxylate] |  | 10.7 |  | 
CC1(C)CSSCC(C(=O)NCC(=O)O)NC1=O (stereo not shown) [Compound 12′, N-[(7,7-dimethyl-6-oxo-1,2,5-dithiazocan-4-yl)carbonyl]glycine] |  | 63.8 |  | 
CCCCCCCNC(=O)C1CSSCC(C)(C)C(=O)N1 (stereo not shown) [Compound 13′, N-heptyl-7,7-dimethyl-6-oxo-1,2,5-dithiazocane-4-carboxamide] |  | 0.66 |  | 
CC1(C)CSSCC(C(=O)OCC(O)CO)NC1=O (stereo not shown) [Compound 18′, 2,3-dihydroxypropyl 7,7-dimethyl-6-oxo-1,2,5-dithiazocane-4-carboxylate] |  | 9.8 |  | 

From patent US20210000727A1, “DITHIAZOCANE COMPOUNDS FOR THE COSMETIC USE THEREOF” (L'OREAL, priority 2017, published 2021)
